system: C3H10T1/2 cells; assay: C3H assay: differentiation of C3H10T1/2 cells by mSHH, measurement of alkaline phosphatase; format: cell-based, mouse; details: C3H10T1/2 cells stimulated with mSHH for 72 hours; alkaline phosphatase activity; read-out: IC50 Ranges

Row | IC50 [nM] | SMILES
1 | < 10 | O=C(OCc1cccc([N+](=O)[O-])c1)N1CC(S(=O)(=O)N2CCC(c3c[nH]c4ncccc34)CC2)C1 [Compound 213, (3-nitrophenyl) methyl 3-[4-(1H-pyrrolo[2,3-b]pyridin-3-yl)piperidin-1-yl]sulfonylaze-tidine-1-carboxylate]

same assay, conditions: Mus musculus, C3H 10T1/2; C3H10T1/2 cells stimulated with mSHH for 72 hours; alkaline phosphatase activity; read-out: IC50 Ranges

Row | IC50 [nM] | SMILES
2 | 10 to 100 | CC(C)(C)C(=O)CN1CC(S(=O)(=O)N2CCC(c3c[nH]c4ncccc34)CC2)C1 [Compound 314, 3,3-dimethyl-1-[3-[4-(1H-pyrrolo[2,3-b]pyridin-3-yl)piperidin-1-yl]sulfonylaze-tidin-1-yl]butan-2-one]
3 | 10 to 100 | O=C(Nc1cccc(F)c1)N1CC(S(=O)(=O)N2CCC(c3c[nH]c4ncccc34)CC2)C1 [Compound 389, N-(3-fluorophenyl)-3-[4-(1H-pyrrolo[2,3-b]pyridin-3-yl)piperidin-1-yl]sulfonylaze-tidine-1-carboxamide]
4 | < 10 | Cc1ccc2c(C3CCN(S(=O)(=O)C4CN(C(=O)OC5CCOCC5)C4)CC3)c[nH]c2n1 [Compound 380, oxan-4-yl 3-[4-(6-methyl-1H-pyrrolo[2,3-b]pyridin-3-yl)piperidin-1-yl]sulfonylaze-tidine-1-carboxylate]
5 | 100 to 1000 | O=C(NC1(C(F)(F)F)CC1)[C@H]1C[C@H](S(=O)(=O)N2CCC(c3coc4cccnc34)CC2)C1 [Compound 345, trans-3-(4-furo[3,2-b]pyridin-3-ylpiperidin-1-yl)sulfonyl-N-[1-(trifluoromethyl)cyclopropyl] cyclobutane-1-carboxamide]
6 | 10 to 100 | O=C(Nc1c(F)cccc1F)N1CC(S(=O)(=O)N2CCC(c3c[nH]c4ncccc34)CC2)C1 [Compound 390, N-(2,6-difluorophenyl)-3-[4-(1H-pyrrolo[2,3-b]pyridin-3-yl)piperidin-1-yl]sulfonylaze-tidine-1-carboxamide]
7 | 100 to 1000 | O=C(N1CCOCC1)N1CC(S(=O)(=O)N2CCC(c3ccc(Cl)cc3)CC2)C1 [Compound 402, [3-[4-(4-chlorophenyl)piperidin-1-yl]sulfonylaze-tidin-1-yl]-morpholin-4-ylmethanone]
8 | 1000 to 10000 | CC(C)(C)NC(=O)[C@H]1C[C@H](S(=O)(=O)N2CCC(c3coc4cccnc34)CC2)C1 [Compound 346, trans-N-tert-butyl-3-(4-furo[3,2-b]pyridin-3-ylpiperidin-1-yl) sulfonylcyclobutane-1-carboxamide]
9 | 10 to 100 | CC(C)(C)OC(=O)N[C@H]1C[C@H](S(=O)(=O)N2CCC(c3c[nH]c4ncccc34)CC2)C1 [Compound 357, trans-tert-butyl-N-[3-[[4-(1H-pyrrolo[2,3-b]pyridin-3-yl)-1-piperidyl]sulfonyl]cyclobutyl]carbamate]
10 | 100 to 1000 | CC(C)(C)OC(=O)N1CC(S(=O)(=O)N2CCC(c3ccc(Cl)cc3)CC2)C1 [Compound 304, tert-butyl 3-[4-(4-chlorophenyl)piperidin-1-yl]sulfonylaze-tidine-1-carboxylate]
11 | 1000 to 10000 | Cc1ccc2c(C3CCN(S(=O)(=O)C4CN(C(=O)Nc5cc(F)ccc5C)C4)CC3)c[nH]c2n1 [Compound 368, N-(5-fluoro-2-methylphenyl)-3-[4-(6-methyl-1H-pyrrolo[2,3-b]pyridin-3-yl)piperidin-1-yl]sulfonylaze-tidine-1-carboxamide]

The remaining lines, values behind:

Row | SMILES | IC50 [nM]
12 | CC(C)(C)OC(=O)N1CC(S(=O)(=O)N2CC=C(c3c[nH]c4ncccc34)CC2)C1 [Compound 228, tert-butyl 3-[[4-(1H-pyrrolo[2,3-b]pyridin-3-yl)-3,6-dihydro-2H-pyridin-1-yl]sulfonyl] azetidine-1-carboxylate] | 100 to 1000
13 | COc1ccc(N2CCN(S(=O)(=O)C3CCN(C(=O)OC(C)(C)C)CC3)CC2)cc1 [Compound 227, tert-butyl 4-[4-(4-methoxyphenyl)piperazin-1-yl]sulfonylpiper-idine-1-carboxylate] | 1000 to 10000
14 | Cc1ccc(F)cc1NC(=O)N1CC(S(=O)(=O)N2CCC(c3c[nH]c4ncccc34)CC2)C1 [Compound 277, N-(5-fluoro-2-methylphenyl)-3-[4-(1H-pyrrolo[2,3-b]pyridin-3-yl)piperidin-1-yl]sulfonylaze-tidine-1-carboxamide] | 10 to 100
15 | O=S(=O)(C1CN(c2ncccc2C2CC2)C1)N1CCC(c2c[nH]c3ncccc23)CC1 [Compound 181, 3-[1-[1-(3-cyclopropylpy-ridin-2-yl)azetidin-3-yl]sulfonylpiper-idin-4-yl]-1H-pyrrolo[2,3-b]pyridine] | 10 to 100
16 | O=C(NC1(C(F)(F)F)CC1)N1CC(S(=O)(=O)N2CCC(c3nc4ccccc4s3)CC2)C1 [Compound 293, 3-[4-(1,3-benzothiazol-2-yl)piperidin-1-yl]sulfonyl-N-[1-(trifluoromethyl)cyclopropyl] azetidine-1-carboxamide] | 10 to 100
17 | CC1(COC(=O)N2CC(S(=O)(=O)N3CCC(c4c[nH]c5ncccc45)CC3)C2)COC1 [Compound 199, (3-methyloxetan-3-yl)methyl 3-[4-(1H-pyrrolo[2,3-b]pyridin-3-yl)piperidin-1-yl]sulfonylaze-tidine-1-carboxylate] | 10 to 100
18 | O=S(=O)(C1CN(c2ncccc2CO)C1)N1CCC(c2ccncc2)CC1 [Compound 259, [2-[3-(4-pyridin-4-ylpiperidin-1-yl)sulfonylaze-tidin-1-yl]pyridin-3-yl]methanol] | 1000 to 10000
19 | CC(C)(C)OC(=O)N1CC(S(=O)(=O)N2CCC(c3ccncc3)CC2)C1 [Compound 22, tert-butyl 3-(4-pyridin-4-ylpiperidin-1-yl)sulfonylaze-tidine-1-carboxylate] | 100 to 1000
20 | CC(C)(O)c1cccnc1N1CC(S(=O)(=O)N2CCC(c3c[nH]c4ncccc34)CC2)C1 [Compound 255, 2-[2-[3-[4-(1H-pyrrolo[2,3-b]pyridin-3-yl)piperidin-1-yl]sulfonylaze-tidin-1-yl]pyridin-3-yl]propan-2-ol] | 10 to 100
21 | O=C(OC1CCCCC1)N1CC(S(=O)(=O)N2CCC(c3cn(C(=O)OC4CCCCC4)c4cccnc34)CC2)C1 [Compound 40, cyclohexyl 3-[1-(1-cyclohexyloxycarbonylazetidin-3-yl)sulfonylpiper-idin-4-yl]pyrrolo [3,2-b]pyridine-1-carboxylate] | 1000 to 10000
22 | CC(C)(C)OC(=O)N1CCN(S(=O)(=O)N2CC(S(=O)(=O)N3CCC(c4c[nH]c5ncccc45)CC3)C2)CC1 [Compound 172, tert-butyl 4-[3-[4-(1H-pyrrolo[2,3-b]pyridin-3-yl)piperidin-1-yl]sulfonylaze-tidin-1-yl] sulfonylpiper-azine-1-carboxylate] | 10 to 100
23 | COc1ccc(OC(=O)N2CC(S(=O)(=O)N3CCC(c4c[nH]c5ncccc45)CC3)C2)cc1 [Compound 219, (4-methoxyphenyl) 3-[4-(1H-pyrrolo[2,3-b]pyridin-3-yl)piperidin-1-yl]sulfonylaze-tidine-1-carboxylate] | 10 to 100
24 | CC(C)(C)COC(=O)N1CC(S(=O)(=O)N2CCC(c3c[nH]c4ncccc34)CC2)C1 [Compound 66, 2,2-dimethylpropyl 3-[4-(1H-pyrrolo[2,3-b]pyridin-3-yl)piperidin-1-yl]sulfonylaze-tidine-1-carboxylate] | 10 to 100
25 | CC(C)(C)OC(=O)N1CCC(S(=O)(=O)N2CCC(c3c[nH]c4ncc(C(F)(F)F)cc34)CC2)CC1 [Compound 116] | 100 to 1000
26 | Cc1ccc(-n2cc(C3CCN(S(=O)(=O)C4CNC4)CC3)c3cccnc32)nc1 [Compound 267, 3-[1-(azetidin-3-ylsulfonyl)piper-idin-4-yl]-1-(5-methylpyridin-2-yl)pyrrolo [2,3-b]pyridine] | 1000 to 10000
27 | O=S(=O)(C1CN(c2ncccc2CO)C1)N1CCC(c2c[nH]c3ncccc23)CC1 [Compound 182, [2-[3-[4-(1H-pyrrolo[2,3-b]pyridin-3-yl)piperidin-1-yl]sulfonylaze-tidin-1-yl]pyridin-3-yl]methanol] | 10 to 100
28 | CC1(C)COCC(C)(C)N1C(=O)N1CC(S(=O)(=O)N2CCC(c3ccncc3)CC2)C1 [Compound 32, [3-(4-pyridin-4-ylpiperidin-1-yl)sulfonylaze-tidin-1-yl]-(3,3,5,5-tetramethylmor-pholin-4-yl)methanone] | 100 to 1000
29 | CN(C(=O)[C@H]1C[C@@H](S(=O)(=O)N2CCC(c3c[nH]c4ncccc34)CC2)C1)C(C)(C)C [Compound 289, cis-N-tert-butyl-N-methyl-3-[[4-(1H-pyrrolo[2,3-b]pyridin-3-yl)-1-piperidyl]sulfonyl]cyclobutanecarboxamide] | 10 to 100
30 | O=C(NCc1cocn1)N1CC(S(=O)(=O)N2CCC(c3c[nH]c4ncccc34)CC2)C1 [Compound 78, N-(1,3-oxazol-4-ylmethyl)-3-[4-(1H-pyrrolo[2,3-b]pyridin-3-yl)piperidin-1-yl]sulfonylaze-tidine-1-carboxamide] | 100 to 1000

molecular target: T1, SMO (Homo sapiens, UniProt Q99835); assay: Smoothened (SMO) binding fluorescence polarisation assay (BODIPY-cyclopamine competition); details: SMO binding FP assay versus C3H10T1/2 cellular assay
T1 construct: expressed in transfected cells; host or cells: HEK293
Experimental: Standard Protocol for Smoothened (SMO) Binding Fluorescence Polarisation Assay.
The assay measures the ability of the test compounds to compete with a fluorescently-labelled version of the known ligand, cyclopamine, for binding to SMO. The fluorescent tag used is BODIPY (boron dipyrromethene).
An aliquot of a membrane preparation from a SMO-over-expressing HEK293 cell line is diluted to protein concentration of 0.117 mg/ml in assay buffer (25 mM HEPES, 2 mM EDTA, 0.05% γ-globulin, 0.01% pluronic acid pH7.4, plus protease Inhibitor cocktail). 8.5 μl of the membrane suspension is added to each well of a black, low volume 384 well microtitre plate.
Test compounds are added in a seven point dilution range to the wells containing the membrane preparation. The final DMSO solvent concentration in the wells is maintained at 0.3%. 6.5 μl of a 6.9 nM BODIPY-cyclopamine solution is added to each of the wells (final assay concentration 3 nM).
The plate is sealed and stored in the dark at room temperature for 24 hours prior to measurement of the fluorescence polarisation signal on a Perkin Elmer Envision multi-label reader.
Table 4 below details the ratio of SMO binding compared to the potency in the C3H10T1/2 cellular assay. The small ratio between SMO binding and potency for vismodegib is considered to be reflective of the fact vismodegib acts mainly through inhibition of the SMO protein. The larger ratios for the compound of the invention are considered to be reflective of alternate actions outside of direct SMO inhibition.

T1 sequence (Q99835 28-787): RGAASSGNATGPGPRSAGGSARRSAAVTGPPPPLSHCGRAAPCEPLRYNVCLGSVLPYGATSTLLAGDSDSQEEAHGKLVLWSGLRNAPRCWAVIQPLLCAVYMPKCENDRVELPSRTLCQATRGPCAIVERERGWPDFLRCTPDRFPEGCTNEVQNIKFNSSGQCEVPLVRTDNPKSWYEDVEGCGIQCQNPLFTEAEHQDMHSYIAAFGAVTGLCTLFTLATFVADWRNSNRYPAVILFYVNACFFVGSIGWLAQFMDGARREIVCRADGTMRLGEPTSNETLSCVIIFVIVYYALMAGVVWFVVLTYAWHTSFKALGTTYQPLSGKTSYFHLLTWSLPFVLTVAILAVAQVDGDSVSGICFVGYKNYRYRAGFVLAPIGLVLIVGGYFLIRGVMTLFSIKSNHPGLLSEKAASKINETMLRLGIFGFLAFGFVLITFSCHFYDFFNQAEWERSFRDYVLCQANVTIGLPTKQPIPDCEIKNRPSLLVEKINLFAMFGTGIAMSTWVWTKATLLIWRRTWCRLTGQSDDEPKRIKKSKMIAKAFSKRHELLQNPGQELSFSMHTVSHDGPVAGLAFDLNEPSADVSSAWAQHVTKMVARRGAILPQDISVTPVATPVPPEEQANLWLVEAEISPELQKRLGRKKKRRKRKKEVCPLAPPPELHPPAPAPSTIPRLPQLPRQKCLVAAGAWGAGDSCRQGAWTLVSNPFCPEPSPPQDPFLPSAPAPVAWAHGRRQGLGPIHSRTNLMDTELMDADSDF

Row | Ratio of potency in SMO binding assay to potency in C3H10T1/2 cellular assay | SMILES
31 | 20 | CC(C)(C)OC(=O)N1CC(S(=O)(=O)N2CC=C(c3c[nH]c4ncccc34)CC2)C1 [Compound 228, tert-butyl 3-[[4-(1H-pyrrolo[2,3-b]pyridin-3-yl)-3,6-dihydro-2H-pyridin-1-yl]sulfonyl] azetidine-1-carboxylate]
32 | 6.7 | CC(C)(C)C(=O)CN1CC(S(=O)(=O)N2CCC(c3c[nH]c4ncccc34)CC2)C1 [Compound 314, 3,3-dimethyl-1-[3-[4-(1H-pyrrolo[2,3-b]pyridin-3-yl)piperidin-1-yl]sulfonylaze-tidin-1-yl]butan-2-one]

— patent US10961238B2, “Modulators of hedgehog (Hh) signaling pathway” (E-THERAPEUTICS PLC, priority 2016, dated 2021)
